Legend:
[1] = target: T1, Solute carrier organic anion transporter family member 1B3 (Homo sapiens, UniProt Q9NPD5); conditions: chinese hamster, cho, 10 µM
T1 sequence (Q9NPD5 whole entry): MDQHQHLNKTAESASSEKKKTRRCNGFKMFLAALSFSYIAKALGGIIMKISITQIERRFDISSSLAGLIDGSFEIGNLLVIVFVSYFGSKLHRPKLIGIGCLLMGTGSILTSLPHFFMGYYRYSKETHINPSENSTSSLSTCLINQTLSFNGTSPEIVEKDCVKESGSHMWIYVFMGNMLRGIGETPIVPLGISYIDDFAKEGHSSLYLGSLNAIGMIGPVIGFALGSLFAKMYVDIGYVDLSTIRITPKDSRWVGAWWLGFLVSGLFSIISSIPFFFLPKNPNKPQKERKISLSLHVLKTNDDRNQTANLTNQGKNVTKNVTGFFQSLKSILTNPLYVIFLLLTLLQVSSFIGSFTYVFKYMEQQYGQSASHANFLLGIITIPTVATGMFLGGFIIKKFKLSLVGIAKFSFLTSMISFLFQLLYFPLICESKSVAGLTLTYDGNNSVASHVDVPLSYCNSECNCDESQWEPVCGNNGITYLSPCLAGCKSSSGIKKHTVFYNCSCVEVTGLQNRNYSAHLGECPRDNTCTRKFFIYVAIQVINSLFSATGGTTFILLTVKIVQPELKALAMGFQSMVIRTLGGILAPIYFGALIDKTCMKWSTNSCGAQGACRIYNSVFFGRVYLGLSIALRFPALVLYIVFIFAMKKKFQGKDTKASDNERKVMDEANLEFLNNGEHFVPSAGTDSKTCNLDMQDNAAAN

[2] = target: T2, Solute carrier organic anion transporter family member 1B1 (Homo sapiens, UniProt Q9Y6L6); conditions: chinese hamster, cho, 10 µM
T2 sequence (Q9Y6L6 whole entry): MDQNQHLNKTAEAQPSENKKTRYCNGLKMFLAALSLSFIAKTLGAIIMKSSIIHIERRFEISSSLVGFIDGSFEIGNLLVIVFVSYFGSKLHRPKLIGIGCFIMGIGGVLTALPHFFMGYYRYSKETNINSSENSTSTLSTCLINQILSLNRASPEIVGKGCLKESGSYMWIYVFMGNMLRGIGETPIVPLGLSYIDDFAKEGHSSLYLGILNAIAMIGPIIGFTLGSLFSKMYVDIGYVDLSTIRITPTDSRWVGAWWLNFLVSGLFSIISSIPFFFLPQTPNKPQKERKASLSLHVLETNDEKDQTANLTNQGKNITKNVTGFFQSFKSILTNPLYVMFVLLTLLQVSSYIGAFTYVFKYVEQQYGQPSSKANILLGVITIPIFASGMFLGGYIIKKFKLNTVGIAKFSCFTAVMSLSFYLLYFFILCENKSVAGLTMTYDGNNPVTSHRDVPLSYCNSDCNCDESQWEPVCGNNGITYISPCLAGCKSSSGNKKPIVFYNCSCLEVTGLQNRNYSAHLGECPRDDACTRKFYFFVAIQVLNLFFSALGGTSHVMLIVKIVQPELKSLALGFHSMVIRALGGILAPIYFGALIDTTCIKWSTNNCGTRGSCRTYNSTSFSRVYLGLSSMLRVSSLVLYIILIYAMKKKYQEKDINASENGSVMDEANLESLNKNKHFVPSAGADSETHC

Compound | residual activity [1] | residual activity [2]
CCCCCCOc1ccccc1C(N)=O [EXALAMIDE] | 129.1% | 188.8%
COc1c(O)cc2c(c1O)[C@@H]1O[C@H](CO)[C@@H](O)[C@H](O)[C@H]1OC2=O [BERGENIN] | 94.52% | 14.59%
CN(C)CCOC(=O)COc1ccc(Cl)cc1.Cl [CENTROPHENOXINE HYDROCHLORIDE] | 88.3% | 70.12%
CNC(=O)Oc1ccc2c(c1)[C@]1(C)CCN(C)[C@@H]1N2C.O=C(O)c1ccccc1O [PHYSOSTIGMINE SALICYLATE] | 110.8% | 116%
COc1cnc(NS(=O)(=O)c2ccc(N)cc2)nc1 | 112.9% | 233.5%
OC[C@@H]1CCCN2CCCC[C@H]12 [LUPININE] | 90.27% | 114.4%
CC(=O)O[C@H]1CC[C@]2(C)C3=CC(=O)[C@@]4(C)C(C[C@@H]5OC6(OCC(C)CC6Br)[C@@H](C)[C@@H]54)C3CC[C@H]2C1 (stereo partly drawn) [3beta-ACETOXY-23-BROMO-ISOALLOSPIROST-9 (11)-ENE-12-ONE] | 96.22% | 102.6%
Cc1cc(N)c2ccccc2[n+]1CCCCCCCCCC[n+]1c(C)cc(N)c2ccccc21.[Cl-].[Cl-] [DEQUALINIUM CHLORIDE] | 111.4% | 158.8%
CC[C@@H](CO)NC(=O)[C@@H]1C=C2c3cccc4[nH]cc(c34)C[C@H]2N(C)C1.O=C(O)/C=C\C(=O)O [METHYLERGONOVINE MALEATE] | 108.9% | 77.53%
CC(=O)OCC(=O)[C@@]1(O)CC[C@H]2[C@@H]3CC[C@@H]4C[C@H](O)CC[C@]4(C)[C@H]3C(=O)C[C@@]21C | 80% | 81.64%
C=C(C)[C@@H]1CC[C@]2(CO)CC[C@]3(C)[C@H](CC[C@@H]4[C@@]5(C)CC[C@H](O)C(C)(C)[C@@H]5CC[C@]43C)[C@@H]12 [BETULIN] | 92.43% | 106.3%
CCCCOc1ccc(OCCCN2CCOCC2)cc1.Cl [PRAMOXINE HYDROCHLORIDE] | 99.07% | 112%
CC1(C)C(=O)C=C[C@@]2(C)C1=C(O)C(=O)[C@]1(C)[C@@H]2CC[C@@]2(C)[C@H](c3ccoc3)C[C@H]3O[C@]321 [CEDRELONE] | 60.66% | 44.73%
O=[N+]([O-])NC1=NCCN1Cc1ccc(Cl)nc1 [IMIDACLOPRID] | 90.03% | 73.94%
COc1ccc(/C=C/C(=O)Nc2ccccc2C(=O)O)cc1OC | 71.26% | 55.59%
CC(=O)O[C@@H]1c2c(ccc3ccc(=O)oc23)OC(C)(C)[C@@H]1OC(=O)CC(C)C [DIHYDROSAMIDIN] | 104.1% | 75.05%
Nc1ccc(S(=O)(=O)Nc2ncccn2)cc1 [SULFADIAZINE] | 74.08% | 90.81%
O=C1CCC(N2C(=O)c3ccccc3C2=O)C(=O)N1 (stereo unspecified) [THALIDOMIDE] | 101% | 82.94%
O=C(O)c1cc(O)c(=O)c2c(O)c(O)ccc2c1 [7-DESHYDROXYPYROGALLIN-4-CARBOXYLIC ACID] | 69.89% | 100.2%
COc1ccc2cc3[n+](cc2c1OC)CCc1cc2c(cc1-3)OCO2.[Cl-] [BERBERINE CHLORIDE] | 108.4% | 110.4%
Cc1cc(=O)n(-c2ccccc2)n1C [ANTIPYRINE] | 82.49% | 79.71%
CC(=O)Nc1c(I)cc(I)c(C(=O)O)c1I [ACETRIZOIC ACID] | 98.63% | 133.1%

Compound | residual activity [1] | residual activity [2]
OC[C@@H](O)[C@@H](O[C@@H]1O[C@H](CO)[C@@H](O)[C@H](O)[C@H]1O)[C@H](O)[C@@H](O)CO [GLUCITOL-4-GUCOPYANOSIDE] | 90.65% | 90.99%
NCCC(=O)c1ccccc1N [KYNURAMINE] | 89.22% | 113.9%
O=C(O)CCCCCCCCCCCC[C@@H]1C=CCC1 [CHAULMOOGRIC ACID] | 82.39% | 83.53%
C=C(CC)C(=O)c1ccc(OCC(=O)O)c(Cl)c1Cl [ETHACRYNIC ACID] | 111.8% | 171.8%
COc1cc(C)c2c(c1C=O)Oc1c(c(C)c(O)c3c1C(O)OC3=O)OC2=O (stereo unspecified) [STICTIC ACID] | 32.28% | 94.3%
NC(=O)c1ccc[n+]([C@@H]2O[C@H](COP(=O)([O-])OP(=O)(O)OC[C@H]3O[C@@H](n4cnc5c(N)ncnc54)[C@H](OP(=O)(O)O)[C@@H]3O)[C@@H](O)[C@H]2O)c1 [SODIUM beta-NICOTINAMIDE ADENINE DINUCLEOTIDE PHOSPHATE] | 105.1% | 190%
C[C@@H]1[C@H](O)[C@@H](C)/C=C/C=C/C=C/C=C/C=C/C=C/C=C/[C@H](O[C@@H]2O[C@H](C)[C@@H](O)[C@H](N)[C@@H]2O)C[C@@H]2O[C@](O)(C[C@@H](O)C[C@@H](O)[C@H](O)CC[C@@H](O)C[C@@H](O)CC(=O)O[C@H]1C)C[C@H](O)[C@H]2C(=O)O [AMPHOTERICIN B] | 99.53% | 89.01%
Cc1cc(OC(=O)c2c(C)cc(O)cc2O)cc(O)c1C(=O)O [LECANORIC ACID] | 60.79% | 61.21%
CC1=C2C(O)C(=O)OC3CC4C(C)(C)C(=O)C=C[C@]4(C)C(CC1)[C@]23C (stereo partly specified) [MEROGEDUNIN] | 83.06% | 106.3%
CC(C)[C@@H](C)/C=C/[C@@H](C)[C@H]1CC[C@H]2C3=CCC4CC(=O)CC[C@]4(C)[C@H]3CC[C@]12C (stereo partly specified) [ERGOSTA-7,22-DIEN-3-ONE] | 94.39% | 71.12%
COc1ccc(-c2oc3c(CC=C(C)C)c(O[C@@H]4O[C@H](CO)[C@@H](O)[C@H](O)[C@H]4O)cc(O)c3c(=O)c2O[C@@H]2O[C@@H](C)[C@H](O)[C@@H](O)[C@H]2O)cc1 [ICARIIN] | 126.8% | 212.5%
COC(=O)c1c(C)cc(O)cc1O [METHYL ORSELLINATE] | 98.38% | 90.83%
CCC[C@H]1CC2=C(C[C@@H](CC)CC3=C1C(=O)OC3=O)C(=O)OC2=O [BYSSOCHLAMIC ACID] | 102.5% | 87.32%
C=C[C@H]1CN2CC[C@H]1C[C@@H]2[C@@H](O)c1ccnc2ccc(OC)cc12.O=C(O)[C@H](O)[C@@H](O)[C@H](O)[C@H](O)CO [QUINIDINE GLUCONATE] | 122% | 103.2%
c1ccc2[nH]c(-c3cscn3)nc2c1 [THIABENDAZOLE] | 94.36% | 76.75%
CCN(CC)C(=S)SSC(=S)N(CC)CC | 64.06% | 71.59%
COc1cc(N)c(Cl)cc1C(=O)NC1CCN(Cc2ccccc2)CC1.O=C(O)/C=C\C(=O)O [CLEBOPRIDE MALEATE] | 124.4% | 84.15%
Clc1ccc(C(c2ccccc2Cl)C(Cl)Cl)cc1 (stereo unspecified) [MITOTANE] | 98.27% | 107.6%
Cl.NCC(=O)CCC(=O)O [AMINOLEVULINIC ACID HYDROCHLORIDE] | 89.23% | 84.34%
Cl.c1ccc2c(CC3=NCCN3)cccc2c1 [NAPHAZOLINE HYDROCHLORIDE] | 95.85% | 100.7%
Cc1onc(-c2ccccc2Cl)c1C(=O)N[C@@H]1C(=O)N2[C@@H]1SC(C)(C)[C@@H]2C(=O)[O-].O.[Na+] [CLOXACILLIN SODIUM] | 63.22% | 47.3%
